In patent US20020137929A1, “1 - (3-heterocyclylphenyl) isothiourea, -isourea, -guanidine and -amidine herbicidal agents” (Intellectual Property Department, BASF Aktiengesellschaft, priority 1998, published 2002):

How the values were obtained:
AMBEL (Ragweed, Common) = assay: Postemergence herbicidal evaluation; assay type: in vivo, Ambrosia artemisifolia; conditions: postemergence
In short: (§1)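 Two-week seedlings sprayed postemergence at 40 psi; formulation: 1:1 acetone/water, 0.5% TWEEN 20; application ≈0.0156–0.500 kg/ha. Greenhouse grow-out, then 0–9 visual scoring at 4–5 weeks.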

CASOB (Sicklepod) = assay: Postemergence herbicidal evaluation; assay type: in vivo, Cassia obtusifolia; conditions: postemergence
In short: as §1

GALAP (Galium) [1] = assay: Postemergence herbicidal evaluation; assay type: in vivo, Galium aparine; conditions: postemergence
In short: as §1

[2] = system: GLXMAW (Soybean, Williams); assay: Postemergence herbicidal evaluation; assay type: in vivo, Glycine max, (L.) Merr. cv Williams; conditions: postemergence
In short: as §1

[3] = system: TRZAWR (Wheat, Winter, cv Riband); assay: Postemergence herbicidal evaluation; assay type: in vivo, Triticum aestivum; conditions: postemergence
In short: as §1

GALAP (Galium) [4] = assay: Preemergence herbicidal evaluation; assay type: in vivo, Galium aparine; conditions: rated 4-5 weeks after treatment
In short: (§2)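 Sown cups got a single aqueous acetone spray of test compound (roughly 0.0156–0.500 kg/ha) before seedlings emerged. Evaluation, 4–5 weeks on, used a 0–9 visual scale covering plant stand, vigor, size, malformation, chlorosis and general appearance compared with controls.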

SETVI (Foxtail, Green) = assay: Preemergence herbicidal evaluation; assay type: in vivo, Setaria viridis; conditions: rated 4-5 weeks after treatment
In short: as §2

ORYSAT (Rice, Tebonnet) = assay: Preemergence herbicidal evaluation; assay type: in vivo, Oryza sativa, (L.) Tebonnet; conditions: rated 4-5 weeks after treatment
In short: as §2

[5] = system: ECHORC (Watergrass (Calif.)); assay: Preemergence weed control under flooded paddy conditions; assay type: in vivo, Echinochloa oryzoides; conditions: rated 3-4 weeks after treatment
In short: (§3)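 Visual injury scored 0-9 against control three to four weeks post-treatment, greenhouse-grown. Application: acetone/water (50/50) solutions dosed directly into flood water (1.5-3 cm over silt loam, planted top 0.5 cm), roughly 0.0313 to 0.500 kg/ha active ingredient.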

CYPSE (Flatsedge) = assay: as above; assay type: in vivo, Cyperus serotinus; conditions: rated 3-4 weeks after treatment
In short: as §3

MOOVA (Monochoria) = assay: as above; assay type: in vivo, Monochoria vaginalis; conditions: rated 3-4 weeks after treatment
In short: as §3

[6] = system: SAGPY (Arrowhead (Pygmaea)); assay: as above; assay type: in vivo, Sagittaria pygmaea; conditions: rated 3-4 weeks after treatment
In short: as §3

## CC(C)N1C(=O)CSC1=Nc1cc(-n2c(=O)cc(C(F)(F)F)n(C)c2=O)c(F)cc1Cl [Compound 164, 3-{4-Chloro-2-fluoro-5-[(3-isopropyl-4-oxo-2-thiazolidinylidene)amino]phenyl}-1-methyl-6-(trifluoromethyl)-2,4(1H,3H)-pyrimidinedione]
AMBEL (Ragweed, Common); rate 0.0156 kg/ha
  Herbicidal rating AMBEL: 7.0
AMBEL (Ragweed, Common); rate 0.0313 kg/ha
  Herbicidal rating AMBEL: 9.0
AMBEL (Ragweed, Common); rate 0.0625 kg/ha
  Herbicidal rating AMBEL: 9.0
AMBEL (Ragweed, Common); rate 0.1250 kg/ha
  Herbicidal rating AMBEL: 9.0
CASOB (Sicklepod); rate 0.0156 kg/ha
  Herbicidal rating CASOB: 2.0
CASOB (Sicklepod); rate 0.0313 kg/ha
  Herbicidal rating CASOB: 2.0
CASOB (Sicklepod); rate 0.0625 kg/ha
  Herbicidal rating CASOB: 5.0
CASOB (Sicklepod); rate 0.1250 kg/ha
  Herbicidal rating CASOB: 6.0
GALAP (Galium) [1]; rate 0.0156 kg/ha
  Herbicidal rating GALAP: 3.0
GALAP (Galium) [1]; rate 0.0313 kg/ha
  Herbicidal rating GALAP: 4.0
GALAP (Galium) [1]; rate 0.0625 kg/ha
  Herbicidal rating GALAP: 7.0
GALAP (Galium) [1]; rate 0.1250 kg/ha
  Herbicidal rating GALAP: 6.0
[2]; rate 0.0156 kg/ha
  Herbicidal rating GLXMAW: 6.0
[2]; rate 0.0313 kg/ha
  Herbicidal rating GLXMAW: 6.0
[2]; rate 0.0625 kg/ha
  Herbicidal rating GLXMAW: 7.0
[2]; rate 0.1250 kg/ha
  Herbicidal rating GLXMAW: 7.5
[3]; rate 0.0156 kg/ha
  Herbicidal rating TRZAWR: 4.0
[3]; rate 0.0313 kg/ha
  Herbicidal rating TRZAWR: 4.5
[3]; rate 0.0625 kg/ha
  Herbicidal rating TRZAWR: 5.5
[3]; rate 0.1250 kg/ha
  Herbicidal rating TRZAWR: 5.5
GALAP (Galium) [4]; 0.0156 kg/ha
  Preemergence herbicidal rating GALAP: 3.0
GALAP (Galium) [4]; 0.0313 kg/ha
  Preemergence herbicidal rating GALAP: 4.0
GALAP (Galium) [4]; 0.0625 kg/ha
  Preemergence herbicidal rating GALAP: 4.0
GALAP (Galium) [4]; 0.1250 kg/ha
  Preemergence herbicidal rating GALAP: 9.0
GALAP (Galium) [4]; 0.2500 kg/ha
  Preemergence herbicidal rating GALAP: 7.0
GALAP (Galium) [4]; 0.5000 kg/ha
  Preemergence herbicidal rating GALAP: 9.0
SETVI (Foxtail, Green); 0.0156 kg/ha
  Preemergence herbicidal rating SETVI: 4.0
SETVI (Foxtail, Green); 0.0313 kg/ha
  Preemergence herbicidal rating SETVI: 9.0
SETVI (Foxtail, Green); 0.0625 kg/ha
  Preemergence herbicidal rating SETVI: 9.0
SETVI (Foxtail, Green); 0.1250 kg/ha
  Preemergence herbicidal rating SETVI: 9.0
SETVI (Foxtail, Green); 0.2500 kg/ha
  Preemergence herbicidal rating SETVI: 9.0
SETVI (Foxtail, Green); 0.5000 kg/ha
  Preemergence herbicidal rating SETVI: 9.0
ORYSAT (Rice, Tebonnet); 0.0156 kg/ha
  Preemergence herbicidal rating ORYSAT: 1.0
ORYSAT (Rice, Tebonnet); 0.0313 kg/ha
  Preemergence herbicidal rating ORYSAT: 1.0
ORYSAT (Rice, Tebonnet); 0.0625 kg/ha
  Preemergence herbicidal rating ORYSAT: 3.0
ORYSAT (Rice, Tebonnet); 0.1250 kg/ha
  Preemergence herbicidal rating ORYSAT: 5.0
ORYSAT (Rice, Tebonnet); 0.2500 kg/ha
  Preemergence herbicidal rating ORYSAT: 7.0
ORYSAT (Rice, Tebonnet); 0.5000 kg/ha
  Preemergence herbicidal rating ORYSAT: 9.0
[5]; 0.0313 kg/ha
  herbicidal effect rating, ECHORC: 6.0
[5]; 0.0625 kg/ha
  herbicidal effect rating, ECHORC: 7.0
[5]; 0.1250 kg/ha
  herbicidal effect rating, ECHORC: 9.0
[5]; 0.2500 kg/ha
  herbicidal effect rating, ECHORC: 9.0
CYPSE (Flatsedge); 0.0313 kg/ha
  herbicidal effect rating, CYPSE: 0.0
CYPSE (Flatsedge); 0.0625 kg/ha
  herbicidal effect rating, CYPSE: 0.0
CYPSE (Flatsedge); 0.1250 kg/ha
  herbicidal effect rating, CYPSE: 3.0
CYPSE (Flatsedge); 0.2500 kg/ha
  herbicidal effect rating, CYPSE: 7.0
MOOVA (Monochoria); 0.0313 kg/ha
  herbicidal effect rating, MOOVA: 8.0
MOOVA (Monochoria); 0.0625 kg/ha
  herbicidal effect rating, MOOVA: 9.0
MOOVA (Monochoria); 0.1250 kg/ha
  herbicidal effect rating, MOOVA: 9.0
MOOVA (Monochoria); 0.2500 kg/ha
  herbicidal effect rating, MOOVA: 9.0
[6]; 0.0313 kg/ha
  herbicidal effect rating, SAGPY: 4.0
[6]; 0.0625 kg/ha
  herbicidal effect rating, SAGPY: 4.0
[6]; 0.1250 kg/ha
  herbicidal effect rating, SAGPY: 5.0
[6]; 0.2500 kg/ha
  herbicidal effect rating, SAGPY: 6.0
